{"source": "patent US5849587A", "about": "“Method of inhibiting viral replication in eukaryotic cells and of inducing apoptosis of virally-infected cells” (Cornell Research Foundation, Inc., priority 1995, dated 1998)", "key": {"[1]": {"test_system": "viral Gag mRNA (Rev-dependent transcripts)", "test": "Polysomal localization of viral Gag mRNA in PMA-induced ACH-2 cells", "format": "cell-based, HIV-1", "details": "200 μM", "procedure": "(§1) 142, 431-438 (1989), which is hereby incorporated by reference]. However, vigorous HIV-1 production by ACH-2 cells is induced by addition of the phorbol ester PMA [Pomerantz et al., Cell 61, 1271-1276 (1990) and Michael et al., J. Virol 65, 1291-1303 (1991), which are hereby incorporated by reference]. This system was selected for these experiments. Logarithmically growing ACH-2 cells, suspended at a concentration of 3×10^5 /ml, were incubated with the hypusine inhibitors mimosine and HK-1 at a final concentration of 200 μM. After 8 hours, viral replication was activated by addition of PMA to these cells and to untreated controls (100 ng/ml final PMA concentration). […] An aliquot of each fraction was analyzed by slot blotting, using the pXC-1 genomic ribosomal DNA probe from rat containing the 18S rRNA coding sequence [Rimarachin, Szabo et al., In Vitro 28A, 705-707 (1992), which is hereby incorporated by reference], to determine the location within the gradient of 18S rRNA, i.e., the distribution of polysomes vs. monosomes. […] Following electrophoresis, the radio-labeled PCR products were visualized by autoradiography according to routine techniques, and the band intensities quantified by densitometric analysis and expressed relative to total product per gradient."}, "[2]": {"test_system": "cellular deoxyhypusyl hydroxylase", "details": "Hanauske-Abel et al. 1994; cited from earlier work"}, "[3]": {"test_system": "HIV-1 producing ACH-2 cells", "test": "Electron microscopy of PMA-induced ACH-2 cells", "format": "cell-based, human", "procedure": "FIGS. 11A and B show, representative ultrastructural findings observed in PMA-induced/untreated (FIG. 11A) and PMA-induced/mimosine-treated (FIG. 11B) ACH-2 cells immediately at the end of the 18-hour incubation period. […] Note, however, that such changes occur rapidly after withdrawal of the inhibitors (compare to time course detailed in FIGS. 12A and B and FIGS. 14A-H). [Magnification: 9100×].\n3. Ultrastructural investigation of antiviral effect. ACH-2 cells were incubated with hypusine inhibitors (mimosine, HK-1) and induced with PMA as outlined in Example II A. Harvesting, fixation of cells, and electron microscopy were performed according to established techniques [Michael et al., J. Virol 65, 1291-1303 (1991), which is hereby incorporated by reference]."}, "GAPDH mRNA": {"test_system": "GAPDH mRNA", "test": "Polysomal localization of cellular GAPDH mRNA in PMA-induced ACH-2 cells", "format": "cell-based, human", "details": "200 μM, FIG. 6", "procedure": "as §1"}, "[4]": {"test_system": "deoxyhypusyl hydroxylase (DOHH)", "details": "previously established, Hanauske-Abel et al.; cited from earlier work"}}, "note": "“Also recorded” adds a separate entry of the source.", "data": [{"compound": "N[C@@H](Cn1ccc(=O)c(O)c1)C(=O)O", "note": "[L-Mimosine]", "values": [{"measurement": "polysomal localization of viral Gag mRNA", "setting": "[1]; FIG. 6", "result": "redirects a significant portion of the Rev-dependent Gag mRNAs into the non-polysomal fractions"}, {"measurement": "polysomal localization of viral Gag mRNA", "setting": "[1]; FIG. 6, listed as minosine", "result": "shifted away from the polysomal protein producing machinery into the pool of monosomal/free MRNA"}, {"measurement": "inhibition of purified and cellular deoxyhypusyl hydroxylase", "setting": "[2]", "result": "inhibit purified and cellular deoxyhypusyl hydroxylase"}, {"measurement": "cells with early apoptotic nuclear changes", "setting": "[3]; PMA-induced ACH-2, FIG. 11B", "result": "about 20%"}, {"measurement": "number of viral particles in extracellular space", "setting": "[3]; PMA-induced ACH-2, end of 18-hour incubation, FIG. 11B", "result": "marked reduction in the number of viral particles; also recorded: prominent reduction in the number of infectious particles in the extracellular space"}, {"measurement": "ultrastructural appearance of treated cells", "setting": "[3]; PMA-induced ACH-2, end of incubation, FIG. 11B", "result": "normal ultrastructural appearance of the treated ACH-2 cells; also recorded: still lacks overt morphological signs of cell damage"}, {"measurement": "polysomal localization of GAPDH mRNA", "setting": "GAPDH mRNA", "result": "did not affect the polysomal loading of cellular MRNA; also recorded: only a marginal effect on the distribution of GAPDH mRNA"}, {"measurement": "hypusine inhibition in cell-free system", "setting": "[4]", "result": "act as hypusine inhibitors in this cell-free system"}]}]}
